Assay results as given in US20060025482A1, “(-)-Hydroxycitric acid for the modulation of angiotensin-converting enzyme” (priority 2004, published 2006).

Experiments:
[1] = twice a day; diet consisting of 70% glucose and 1% fat; cited from earlier work
[2] = Blood chemistries in Sprague-Dawley rats (Example 1); type: in vivo, rat; conditions: SD rats; for average insulin concentrations compared to control: differences not significant using ANOVA, all dose groups
From the text: (§1) A know effect of ACE inhibitors is a reduction in elevated systolic blood pressure. To test this, the following protocol was employed: Sprague-Dawley Rats (SD), approximately 8 weeks of age werw obtained. Six groups of eight male SD received the same […] rat chow manufactured to specifications. The special diets derived 30% of calories from fats (one half from lard and one half from corn oil), 50% from carbohydrates, and 20% from proteins. Twenty percent of dietary calories was derived from sucrose and the preponderance of the remaining carbohydrate calories was derived from dextrin. During weekdays (M-F), each group was gavaged twice daily with a solution containing a commercial source of potassium hydroxycitrate (KHCA), a commercial source of potassium-calcium hydroxycitrate (KCaHCA), or a pre-commercial non-salt source of potassium-magnesium hydroxycitrate (KMgHCA, listed as KMgHCA L-Low, M-Intermediate or H-High depending upon the dose). Over the weekends (S-S), a similar quantity of the weekday daily dose was added to twenty grams of food, that is, an amount of food estimated to be close to the daily intake of the animals. At initiation of study and four weeks, and eight weeks later, bloods were drawn from all SD for routine blood chemistries. Body weight (BW) was measured weekly and systolic blood pressure (SBP) was measured every two weeks.
(§2) Statistical Analyses: Results are presented as mean±SEM. Many statistics were performed by one-way analysis of variance (ANOVA). SBP and BW were examined by two-way analyses of variance (one factor being dietary group and the second factor being time of examination). Where a significant effect of diet was detected by ANOVA (p<0.05), the Dunnett t test was used to establish which differences between means reached statistical significance (p<0.05). If a Student's t test was employed, this is noted.

Sprague-Dawley Rats = assay: Systolic blood pressure by tail plethysmography in Sprague-Dawley rats on special diet (Example 1); type: in vivo, rat; conditions: SD rats
From the text: as §1
The HCA dosages in the arms varied. The dosage used in the KHCA arm was extrapolated from the recommended 1,500 mg HCA per day for humans consuming a normal diet (i.e., ≧30% calories derived from fats) advocated by a commercial seller of KHCA and claimed to have produced acceptable clinical results. The approximate equivalent for the rat model is 35.4 mg HCA per day, which we increased to 38.4 mg HCA per day for convenience in employing a 48% HCA potassium salt and to remain safely on the high side in practice. For the sake of comparison, a commercial KCaHCA salt (60% HCA) was chosen and delivered at an HCA dosage level of 48 mg per day, which slightly exceeded the lowest dosage of HCA found to be efficacious for inhibition of weight gain in rats in the early pharmaceutical trials (45.4 mg/day) using pure trisodium hydroxycitrate and a very low fat diet. The design thus utilized a realistic diet with rough equivalents of the HCA dosages claimed to be effective in both the human and rat models.
The experimental KMgHCA dosings varied considerably from that of the other two salts. […] As a result, the recalculated HCA doses for the experimental compound were a low dose (KMgHCA L) of 14 mg, an intermediate dose (KMgHCA M) of 28 mg and a high dose (KMgHCA H) of 84 mg per day. The difficulty in calculating the HCA content in this case is not unique inasmuch as there is as of yet no universally accepted method for calculating the HCA content of the various salts. Again, preparations yielded the equivalent of 48 mg HCA per day from KCaHCA and 38.4 mg HCA per day from KHCA.
(§3) Systolic Blood Pressure (SBP): SBP was estimated by tail plethysmography in unanesthetized rats after a brief warming period. Readings were taken approximately one minute apart. To be accepted, SBP measurements had to be virtually stable for a minimum of three consecutive readings.
as §2

[3] = system: Spontaneously hypertensive rats (SHR); assay: Losartan challenge: SBP response in SHR; type: in vivo, rat
From the text: Many factors can positively influence blood pressure, e.g., diuretics, antioxidants, regulators of sympathetic/parasympathetic tone, compounds that improve insulin sensitivity and so forth. Therefore, losartan, an angiotensin-2 receptor blocker, was utilized to discover whether the ACE system was involved in the results discussed in Example 1.
(§4) Spontaneously hypertensive rats (SHR) were placed on a diet composed of regular rat chow (60% w/w) and table sugar (40% w/w). This diet reliably elevates blood pressure in this animal model. One group received 100 mg HCA per day in the form of a new potassium-magnesium hydroxycitrate (different from that used in Example 1) via an added 5 g HCA per kg of food mix. Systolic blood pressure and body weight were tested as in Example 1 on a weekly basis.
When losartan was injected, the SBP of both groups decreased. At 6 hours, the SBP were essentially the same. […] Thus, HCA appears to decrease angiotensin-2 in rats and to lower elevated SBP. Although insulin regulation likely is a factor in the blood pressure modulating effect of HCA, this evidence argues that inhibition of ACE is also important. […]

[4] = system: Spontaneously hypertensive rats (SHR); assay: Glucose tolerance test with 0.1 unit regular insulin injected along with glucose in SHR; type: in vivo, rat; conditions: 100 mg HCA per day, at 7.5 minutes
Method: as §4
This was viewed as likely positive in that rats gain weight steadily as long as they remain in good health and the SHR at middle age, as used here, lives a relatively short life and its health deteriorates as its blood pressure rises. […] A glucose tolerance test was administered in which 0.1 unit of regular insulin was injected along with glucose. […] This finding indicates increased insulin sensitivity. (FIG. 6)

[5] = system: Spontaneously hypertensive rats (SHR); assay: Systolic blood pressure of SHR on chow/table sugar diet (Example 2); type: in vivo, rat; conditions: 100 mg HCA per day in food, control SBP steadily increased
Method: as §3, §4

[6] = Body weight of SHR on chow/table sugar diet (Example 2); type: in vivo, rat; conditions: 100 mg HCA per day in food, p=0.084
Method: as §4

[7] = treated rats; cited from earlier work
[8] = Earlier study of SBP with a KCaHCA salt, not described; type: in vivo; conditions: 120 mg HCA per day
[9] = gavaged twice daily, KHCA 38.4 mg HCA per day, KCaHCA 48 mg HCA per day
[10] = high dose (KMgHCA H) 84 mg HCA per day
[11] = intermediate dose (KMgHCA M) 28 mg HCA per day

## O=C([O-])CC(O)(C(=O)[O-])C(O)C(=O)[O-].[Na+].[Na+].[Na+] (centres unmarked) [trisodium hydroxycitrate]
[1]
  lowest dose in rats shown to be efficacious in reducing weight gain: 0.33 mmol/kg

## O=C([O-])CC(O)(C(=O)[O-])C(O)C(=O)[O-].[K+].[K+].[K+] (centres unmarked) [KHCA, potassium hydroxycitrate]
[2]; KHCA 38.4 mg HCA per day
  insulin, control versus treatment, Student's t test: showed significance
[2]
  average insulin concentrations compared to control: lower
Sprague-Dawley Rats; [9]
  SBP compared to control at the end of eight weeks: significant decreases

## CCCCc1nc(Cl)c(CO)n1Cc1ccc(-c2ccccc2-c2nn[nH]n2)cc1 [losartan, reference compound]
[3]; both groups (control and KMgHCA)
  SBP after losartan injection: decreased

## O=C([O-])CC(O)(C(=O)[O-])C(O)C(=O)[O-].[K+].[Mg+2] (centres unmarked) [KMgHCA, potassium-magnesium hydroxycitrate]
[2]; KMgHCA H 84 mg HCA per day, p=0.058
  insulin, control versus treatment, Student's t test: at the margin of significance
[2]
  average insulin concentrations compared to control: lower
[4]
  glucose appearance in bloodstream in glucose tolerance test: significantly lesser rise
[3]; 100 mg HCA per day, at 6 hours, versus control
  decrease in SBP after losartan injection: −21.7±7.0
[5]
  SBP from baseline: decrease in SBP from baseline
[6]
  body weight over three weeks: trend for an increase
Sprague-Dawley Rats; [10]
  SBP compared to control at the end of eight weeks: significant decreases
  lowering of SBP at the end of 8 weeks: over 10 mm Hg
Sprague-Dawley Rats; [11]
  SBP compared to control at the end of eight weeks: significant decreases
  lowering of SBP at the end of 8 weeks: over 10 mm Hg
Sprague-Dawley Rats; low dose (KMgHCA L) 14 mg HCA per day
  SBP at the end of 8 weeks: essentially did nothing

## O=C(O)CC(O)(C(=O)O)C(O)C(=O)O (single isomer, unassigned; (-)) [(−)-hydroxycitrate, (−)-Hydroxycitric acid]
[7]
  plasma levels of glucose, insulin, or free fatty acids relative to controls: no significant differences

## O=C([O-])CC(O)(C(=O)[O-])C(O)C(=O)[O-].[Ca+2].[K+] (centres unmarked) [KCaHCA, potassium-calcium hydroxycitrate]
[2]
  average insulin concentrations compared to control: did not show a trend toward lower circulating insulin
[8]
  SBP in earlier study: decrease in SBP
Sprague-Dawley Rats; [9]
  SBP compared to control at the end of eight weeks: significant decreases
